# Patent US4518528A, “α Amino fluoro ketones” (priority 1984, dated 1985)
# Where a SMILES comes first, the peptide text is derived from it. [ ]: non-standard residue; d: D form. The star is where a group is joined. ξ: configuration not given here. ξF = NC(Cc1ccccc1)C(=O)O; Cbz = O=C(OCc1ccccc1)*; CH2F = FC*
# Legend:
# cathepsin L = assay: Inhibition of cathepsin L by the method of Example 22; format: biochemical; conditions: same conditions and concentrations of protease to ketone inhibitor as Example 22
# Experimental: (§1) Enzyme activity was assayed using the synthetic oligopeptide substrate Bz-Val-Lys-Arg-AFC with 10 mM DTT and 1 mM of the activator salt EDTA at pH 6.5 by fluorescence detection of the liberated AFC. Units of enzyme activity were standardized per 100 ml of a 50 percent of glycerol-phosphate buffer solution. A standard concentration of enzyme (10 nM) was preincubated with each inhibitor (50 nM) over set time periods of 3, 5, 10, 15, 20 and 30 minutes, 25°; then all test samples were individually assayed for activity using the same synthetic substrate and condition to determine the remaining units of activity of the purified enzyme. The amount of enzyme activity inhibited by each inhibitor was determined by subtracting the residual activity for each inhibitor against the control activity.
# cathepsin B [1] = target: T1, cathepsin B (Rattus norvegicus, UniProt P00787); assay: Rate of inhibition of cathepsin B in rat tissue homogenates; format: biochemical; conditions: inhibitor 0.10 μM, 25°
# T1 construct: cathepsin B in rat spleen, pancreas, liver and kidney tissue homogenates; from tissue; host or cells: rat spleen, pancreas, liver and kidney (supernatant of homogenates)
# Experimental: as §1, with “activity. […] The inhibitor specificity constant (k3 /KI) for Z-Phe-AlaCH2 F is 30 fold higher than for Z-Phe-AlaCHN2.” for “activity.”
# The rate of inhibition of cathepsin B in rat spleen, pancreas, liver and kidney tissue homogenates was assayed using the inhibitors: Z-Phe-AlaCHN2; Z-Phe-AlaCH2 Cl; and Z-Phe-AlaCH2 F.
# The proceding tissues were homogenized, centrifuged at 13,000 rpm for 25 minutes and the supernatant removed. Aliquots of the supernatant were diluted with water to yield a concentration of 0.01 μM. The method of Example 9 was followed. As soon in Table III, the inhibition by the three inhibitors relevant to Cathepsin B were compared for each of the tissue samples. Results are expressed as .tau. (the half-time of inactivation, inhibition). […] The concentration for the inhibitors was 0.10 μM and the incubation temperature was 25°.
# cathepsin B [2] = assay: Irreversible inhibition of purified cathepsin B, fluorescence assay with Bz-Val-Lys-Arg-AFC; format: biochemical, human and rat; conditions: for k3 (rate constant of inactivation) / Ki: pH 6.5, 10 mM DTT, 1 mM EDTA, 25°; for Ki: read-out: KI (inhibitor dissociation constant); for k3 /KI (inhibitor specificity constant): pH 6.5, 25°
# Experimental: as §1, with “([…])” for “(10 nM) was preincubated with each inhibitor (50 nM)”, “activity. […] The inhibitor specificity constant (k3 /KI) for Z-Phe-AlaCH2 F is 30 fold higher than for Z-Phe-AlaCHN2.” for “activity.”
# [3] = test system: porcine pancreatic elastase; assay: Irreversible inhibition of elastase, fluorescence assay with MeOSuc-Ala-Ala-Pro-Val-MNA; format: biochemical; conditions: alkaline conditions (0.1M TES pH 8.2, 10 mM CaCl2), 37°
# Experimental: (§2) An aqueous solution of elastase (0.3 μM) in 0.1M TES pH 8.2 containing CaCl2 (10 mM) was assayed against the synthetic substrate MeOSuc-Ala-Ala-Pro-Val-MNA. The liberated detecting group (MNA) was quantitated by fluorescence. A standard number of enzyme units were preincubated with each inhibitor at several concentrations for set time periods of 5, 15, 30, and 60 minutes at 37°; then all test samples were individually assayed for activity using the same synthetic substrate and conditions as per control with inhibitors absent. The amount of enzyme activity inhibited by each inhibitor was determined by subtracting the residual activity for each inhibitor against the control activity.
# trypsin = assay: Inhibition of trypsin by the method of Example 23; format: biochemical; conditions: protease about 10 μM, ketone inhibitor about 0.1 mM
# Experimental: as §2
# Following the method of Example 23 above, the serine protease trypsin is inhibited by the ketone inhibitor Z-LysCH2 F with a protease concentration of about 10 μM and a ketone inhibitor concentration of about 0.1 mM.
# plasminogen activator = assay: Inhibition of plasminogen activator by the method of Example 23; format: biochemical; conditions: protease about 50 μM, ketone inhibitor about 0.1 mM
# Experimental: as §2
# Following the method of Example 23, above, the serine protease plasminogen activator is inhibited by MeOSuc-Gly-Gly-ArgCH2 F under the same conditions with a protease concentration of about 50 μM and a ketone inhibitor concentration of about 0.1 mM.
# glandular kallikrein = assay: Inhibition of glandular kallikrein by the method of Example 23; format: biochemical; conditions: protease about 10 μM, ketone inhibitor about 0.1 mM
# Experimental: as §2
# Following the method of Example 23 above, the serine protease glandular kallikrein is inhibited by the ketone inhibitor D-Val-Leu-ArgCH2 F with a protease concentration of about 10 μM and a ketone inhibitor concentration of about 0.1 mM.
# plasma kallikrein = assay: Inhibition of plasma kallikrein by the method of Example 23; format: biochemical; conditions: protease about 10 μM, ketone inhibitor about 0.1 mM
# Experimental: as §2
# Following the method of Example 23, above, the serine protease plasma kallikrein is inhibited by the ketone inhibitor D-Pro-Phe-ArgCH2 F under the same conditions with a protease concentration of about 10 μM and ketone inhibitor concentration of about 0.1 mM.
# T1 sequence (P00787 80-339): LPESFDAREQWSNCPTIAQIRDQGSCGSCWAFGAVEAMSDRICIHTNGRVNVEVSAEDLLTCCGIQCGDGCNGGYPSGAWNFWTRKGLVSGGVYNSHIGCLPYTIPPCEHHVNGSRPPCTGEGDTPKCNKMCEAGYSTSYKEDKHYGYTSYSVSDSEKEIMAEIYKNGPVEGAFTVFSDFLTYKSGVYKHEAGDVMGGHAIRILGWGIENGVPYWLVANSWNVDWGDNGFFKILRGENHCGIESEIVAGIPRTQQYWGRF
structure (smiles),measurement,setting,value
O=C(N[C@@H](Cc1ccccc1)C(=O)NC(Cc1ccccc1)C(=O)CF)OCc1ccccc1 (stereo partly drawn) [Z-Phe-PheCH2 F] (Cbz-Phe-[ξF]-CH2F),inhibition of cathepsin L (in words),cathepsin L,inhibited
C[C@H](NC(=O)[C@H](Cc1ccccc1)NC(=O)OCc1ccccc1)C(=O)CCl [Z-Phe-AlaCH2 Cl],.tau. Half-Time (half-time of inactivation),cathepsin B [1]; rat KIDNEY homogenate,76.6 min
same,.tau. Half-Time (half-time of inactivation),cathepsin B [1]; rat LIVER homogenate,66.5 min
same,.tau. Half-Time (half-time of inactivation),cathepsin B [1]; rat PANCREAS homogenate,21.4 min
same,.tau. Half-Time (half-time of inactivation),cathepsin B [1]; rat SPLEEN homogenate,74.2 min
C[C@H](NC(=O)[C@H](Cc1ccccc1)NC(=O)OCc1ccccc1)C(=O)C=[N+]=[N-] [Z-Phe-AlaCHN2],k3 (rate constant of inactivation),cathepsin B [2]; purified cathepsin B,4.1±1.7×10^-3 s^-1
same,Ki,cathepsin B [2]; purified cathepsin B,7.4 ± 3 µM
same,k3 /KI (inhibitor specificity constant),cathepsin B [2]; purified cathepsin B,546 M⁻¹ s⁻¹
same,.tau. Half-Time (half-time of inactivation),cathepsin B [1]; rat KIDNEY homogenate,20.1 min
same,.tau. Half-Time (half-time of inactivation),cathepsin B [1]; rat LIVER homogenate,22.4 min
same,.tau. Half-Time (half-time of inactivation),cathepsin B [1]; rat PANCREAS homogenate,15.8 min
same,.tau. Half-Time (half-time of inactivation),cathepsin B [1]; rat SPLEEN homogenate,26.4 min
"CC(NC(=O)[C@H](Cc1ccccc1)NC(=O)OCc1ccccc1)C(=O)CF (stereo partly drawn) [Z-Phe-AlaCH2 F, 3-(N-Benzyloxycarbonylphenylalanylamido)-1-fluoro-2-butanone]",inhibition of purified cathepsin B (in words),cathepsin B [2]; 0.1 μM inhibitor,effective inhibitor
same,k3 /KI fold higher than for Z-Phe-AlaCHN2,cathepsin B [2]; purified cathepsin B,30 fold
same,k3 (rate constant of inactivation),cathepsin B [2]; purified cathepsin B,9.2±1.3×10^-3 s^-1
same,Ki,cathepsin B [2]; purified cathepsin B,0.57 ± 0.09 µM
same,k3 /KI (inhibitor specificity constant),cathepsin B [2]; purified cathepsin B,"16,200 M^-1 s^-1"
same,inhibition of porcine pancreatic elastase (in words),[3],inhibits
same,inhibition of cathepsin L (in words),cathepsin L,inhibited
same,.tau. Half-Time (half-time of inactivation),cathepsin B [1]; rat KIDNEY homogenate,7.9 min
same,.tau. Half-Time (half-time of inactivation),cathepsin B [1]; rat LIVER homogenate,8.5 min
same,.tau. Half-Time (half-time of inactivation),cathepsin B [1]; rat PANCREAS homogenate,12.4 min
same,.tau. Half-Time (half-time of inactivation),cathepsin B [1]; rat SPLEEN homogenate,14.2 min
NCCCCC(NC(=O)OCc1ccccc1)C(=O)CF (stereo not drawn) [Z-LysCH2 F],inhibition of trypsin (in words),trypsin,inhibited
COC(=O)CCC(=O)NCC(=O)NCC(=O)NC(CCCNC(=N)N)C(=O)CF (stereo not drawn) [MeOSuc-Gly-Gly-ArgCH2 F],inhibition of plasminogen activator (in words),plasminogen activator,inhibited
CC(C)C[C@H](NC(=O)[C@H](N)C(C)C)C(=O)N[C@@H](CCCNC(=N)N)C(=O)CF [D-Val-Leu-ArgCH2 F] (HELM PEPTIDE1{[dV].L.R.[FC[*:1]]}$$$$V2.0),inhibition of glandular kallikrein (in words),glandular kallikrein,inhibited
N=C(N)NCCC[C@H](NC(=O)[C@H](Cc1ccccc1)NC(=O)[C@H]1CCCN1)C(=O)CF [D-Pro-Phe-ArgCH2 F] (HELM PEPTIDE1{[dP].F.R.[FC[*:1]]}$$$$V2.0),inhibition of plasma kallikrein (in words),plasma kallikrein,inhibited
